pIC50: −log10 of the molar value.
Assays:
BTK = BTK (Homo sapiens (Human), UniProt Q06187); assay: BTK enzyme experiment (ADP-Glo kinase assay); format: biochemical; conditions: 10 nM BTK, ATP 125 μM, Poly(Glu4, Tyr1), 90 minutes at 20° C.; read-out: BTK(WT) IC50
Procedure, shortened: (§1)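 Wild-type or C481S BTK, added as 2× solution at 10 nM, preincubated 10 min with 3-fold compound dilutions in 50 mM HEPES pH 7.5, 10 mM MgCl2, 2 mM DTT, 0.0015% Brij-35. ADP-Glo luminescence norm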

BTK (C481S) = BTK (C481S) (Homo sapiens (Human), UniProt Q06187, C481S); assay: BTK C481S enzyme experiment (ADP-Glo kinase assay); format: biochemical; conditions: 10 nM BTK C481S, ATP 125 μM, Poly(Glu4, Tyr1), 90 minutes at 20° C.
Procedure, shortened: as §1

p-BTK (WT) = p-BTK (WT) (Homo sapiens (Human), UniProt Q06187); assay: p-BTK cell experiment, HEK293 transfected with WT-BTK plasmid (P-BTK Y223 sandwich ELISA); format: cell-based; conditions: HEK293 cells, compound cultured for two hours
Description: (§2) Day 1: HEK293 cells (ADDEXBIO, T0011001) at logarithmic growth phase were taken, digested with enzyme EDTA, collected and counted, and 2E6 cells were inoculated in a 10 cm culture dish and cultured overnight. Day 2: A mixed solution containing 6 μg of WT-BTK/C481S-BTK plasmid and 18 μL of FuGENE HD transfection reagent was prepared by using 1000 μL of Opti-MEM. After standing at room temperature for 10 minutes, the mixed solution was slowly added to the culture dish with a pipettor and cultured overnight. Day 3: The culture dish was taken out, and the cells were digested with enzyme EDTA, collected and counted, and 1E4 cells were inoculated in a 96-well cell culture plate and cultured overnight. A 3.16-fold gradient concentration stock solution of 1000× compound was prepared using DMSO, and placed at room temperature. Day 4: A prepared 1000× compound stock solution was taken, and diluted 200-fold to 5× compound stock solution with culture medium. 5× compound stock solution was added to each cell culture well with a final concentration of 1× compound stock solution and a DMSO content of 0.1%. DMSO was used as an experimental control. After the compound was added and cultured for two hours, the residual culture medium was removed. 100 μL of cell lysis buffer was added to each well, stood on ice for 30 minutes, and ultrasonically lysed with ice water for 5 minutes. After diluting the cell lysate in proportion, 80 μL of the mixture was transfer to an ELISA plate, and 80 μL of cell lysis buffer was added to the blank well. After incubating in an incubator at 37° C. for 2 hours, the plate was taken and the antibody incubation and color development termination operation were completed according to the instructions of Pathscan P-BTK (Y223) Sandwich ELISA Kit (Cell Signaling #23843 CA), and finally the OD value was read. The inhibition rate of the compound (%)=(ODcontrol−ODcompound)/(ODcontrol−ODblank)×100% was calculated. The compound gradient dilution concentration and the corresponding cell proliferation inhibition rate were fit by using Prism 8 four-parameter method, and IC50 value was calculated.

p-BTK (C481S) = p-BTK (C481S) (Homo sapiens (Human), UniProt Q06187, C481S); assay: p-BTK cell experiment, HEK293 transfected with C481S-BTK plasmid (P-BTK Y223 sandwich ELISA); format: cell-based; conditions: HEK293 cells, compound cultured for two hours
Description: as §2

TMD-8 cells = assay: TMD-8 proliferation inhibition experiment; format: cell-based; conditions: human diffuse large B lymphoma cells, three days incubation
Procedure, shortened: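 Log-phase cells seeded in 384-well plates (600 TMD-8 in RPMI 1640, 2000 OCI-LY10 in IMDM, both 10% FBS), then exposed one day later to 3-fold compound dilutions at 0.25% DMSO for three days. ADP-Glo luminescence read; inhibition versus DMSO and medium-only blank, IC50 by four-parameter fit.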

Sequence of BTK (C481S) (Q06187 whole entry C481S): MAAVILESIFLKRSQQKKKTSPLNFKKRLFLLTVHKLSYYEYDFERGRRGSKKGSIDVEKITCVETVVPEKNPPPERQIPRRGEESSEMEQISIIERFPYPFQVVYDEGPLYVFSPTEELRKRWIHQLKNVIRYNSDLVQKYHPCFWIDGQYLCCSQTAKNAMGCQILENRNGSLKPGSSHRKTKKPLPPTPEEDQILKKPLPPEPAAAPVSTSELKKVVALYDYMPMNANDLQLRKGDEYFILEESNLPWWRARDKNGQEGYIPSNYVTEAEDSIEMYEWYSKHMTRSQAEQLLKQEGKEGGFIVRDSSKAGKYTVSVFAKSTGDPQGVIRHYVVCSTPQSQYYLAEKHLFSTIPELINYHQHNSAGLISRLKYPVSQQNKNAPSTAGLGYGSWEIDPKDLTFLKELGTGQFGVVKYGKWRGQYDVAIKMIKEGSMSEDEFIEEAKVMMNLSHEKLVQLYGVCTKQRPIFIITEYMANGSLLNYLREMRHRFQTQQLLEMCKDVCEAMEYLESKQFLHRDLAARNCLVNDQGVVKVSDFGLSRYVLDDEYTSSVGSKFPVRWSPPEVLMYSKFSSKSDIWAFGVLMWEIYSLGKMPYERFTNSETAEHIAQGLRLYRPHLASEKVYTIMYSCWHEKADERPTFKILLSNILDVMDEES
Sequence of p-BTK (C481S) (Q06187 whole entry C481S): as above
Sequence of BTK (Q06187 whole entry): as the sequence (Q06187 whole entry C481S) above, with S481C counted along it
Sequence of p-BTK (WT) (Q06187 whole entry): as the sequence (Q06187 whole entry C481S) above, with S481C counted along it

| Compound | pIC50 (BTK) | pIC50 (BTK (C481S)) | pIC50 (p-BTK (WT)) | pIC50 (p-BTK (C481S)) | pIC50 (TMD-8 cells; Homo sapiens, TMD8, 72 h) | pIC50 (TMD-8 cells) |
| --- | --- | --- | --- | --- | --- | --- |
| COCC1(C)Nc2c(cnc3[nH]cc(C(=O)c4ccc(Oc5cc(C)ccn5)cc4Cl)c23)NC1=O (single isomer, unassigned) [Z64-1, 9-(2-chloro-4-((4-methylpyridin-2-yl)oxy)benzoyl)-2-(methoxymethyl)-2-methyl-1,2,4,7-tetrahydro-3H-pyrrolo[3′,2′:5,6]pyrido[3,4-b]pyrazin-3-one] | 8.20 | 7.97 | 7.23 | 6.70 | 6.71 |  |
| [2H]C([2H])([2H])OC[C@]1(C)Nc2c(cnc3[nH]cc(C(=O)c4ccc(Oc5ccccc5)cc4Cl)c23)NC1=O (single isomer, unassigned) [Z66-1] | 8.17 | 8.42 | 7.53 | 7.42 | 7.02 |  |
| CCOC[C@]1(C)Nc2c(cnc3[nH]cc(C(=O)c4ccc(Oc5ccccc5)cc4Cl)c23)NC1=O (single isomer, unassigned) [Z67-1] | 8.02 | 7.99 | 7.43 | 7.37 | 6.79 |  |
| COC[C@@]1(C)Nc2c(cnc3[nH]cc(C(=O)c4ccc(Oc5ccccc5)cc4F)c23)NC1=O (single isomer, unassigned) [Z71-1] | 8.07 | 8.08 | 7.49 | 7.39 |  | 6.75 |
| CC1(CO)Nc2c(cnc3[nH]cc(C(=O)c4ccc(Oc5ccccc5)cc4Cl)c23)NC1=O (stereo not drawn) [Z9, 9-(2-chloro-4-phenoxybenzoyl)-2-(hydroxymethyl)-2-methyl-1,2,4,7-tetrahydro-3H-pyrrolo[3′,2′:5,6]pyrido[3,4-b]pyrazin-3-one] | 7.64 | 7.84 | 7.63 | 7.24 | 6.63 |  |
| COC[C@]1(C)Nc2c(cnc3[nH]cc(C(=O)c4ccc(Oc5ccccc5)cc4Cl)c23)NC1=O [Z13-1] | 7.94 | 8.01 | 7.44 | 7.37 |  | 7.42 |
| O=C(c1ccc(Oc2ccccc2)cc1Cl)c1c[nH]c2ncc3c(c12)NC1(CCOCC1)C(=O)N3 [Z14] | 8.12 | 8.29 | 7.50 | 7.56 |  | 7.24 |
| COCC[C@]1(C)Nc2c(cnc3[nH]cc(C(=O)c4ccc(Oc5ccccc5)cc4Cl)c23)NC1=O [Z78-2] | 7.99 | 7.76 | 7.17 | 6.93 |  | 6.60 |
| COC[C@]1(C)Nc2c(cnc3[nH]cc(C(=O)c4ccc(Oc5nccc(C)c5F)cc4Cl)c23)NC1=O [Z132, 9-(2-chloro-4-((3-fluoro-4-methylpyridin-2-yl)oxy)benzoyl)-2-(methoxymethyl)-2-methyl-4,7-dihydro-1H-pyrrolo[3′,2′:5,6]pyrido[3,4-b]pyrazin-3(2H)-one] | 7.93 | 7.81 | 7.78 | 7.44 | 6.88 |  |

— patent US20240360154A1, “AROYL SUBSTITUTED TRICYCLIC COMPOUND, PREPARATION METHOD THEREFOR AND USE THEREOF” (GENFLEET THERAPEUTICS (SHANGHAI) INC., priority 2020, published 2024)
